Experiments:
Test in all cases: relative viability (nuclei count vs DMSO), 5 days (fraction); higher = more cells survive
Vorinostat + OSI-027 = compound: O=C(CCCCCCC(=O)Nc1ccccc1)NO [Vorinostat] + COc1cccc2cc(-c3nc([C@H]4CC[C@H](C(=O)O)CC4)n4ncnc(N)c34)[nH]c12 [OSI-027] (partner 0.5 µM)
In short: (§1)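 Lung cancer cell lines in 1536-well plates were dosed by pin tool the day after seeding, either with one drug alone or with a fixed anchor-drug dose plus five library-drug doses (not always all listed) in √10 steps. After 5 days, cells were fixed and their nuclei stained in one step (final 0.05% Triton X-100, 1% formaldehyde, 1 ug/ml Hoechst), then counted on 4× images. Relative viability is the nuclei count in treated wells divided by that in vehicle wells. Values are medians of duplicate plates.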

Vorinostat + Luminespib = compound: O=C(CCCCCCC(=O)Nc1ccccc1)NO [Vorinostat] + CCNC(=O)c1noc(-c2cc(C(C)C)c(O)cc2O)c1-c1ccc(CN2CCOCC2)cc1 [Luminespib] (partner 0.01 µM)
In short: as §1

Vorinostat + Phenformin = compound: O=C(CCCCCCC(=O)Nc1ccccc1)NO [Vorinostat] + N=C(N)NC(=N)NCCc1ccccc1 [Phenformin] (partner 250 µM)
In short: as §1

Vorinostat + Olaparib = compound: O=C(CCCCCCC(=O)Nc1ccccc1)NO [Vorinostat] + O=C(c1cc(Cc2n[nH]c(=O)c3ccccc23)ccc1F)N1CCN(C(=O)C2CC2)CC1 [Olaparib] (partner 8 µM)
In short: as §1

Vorinostat + Pictilisib = compound: O=C(CCCCCCC(=O)Nc1ccccc1)NO [Vorinostat] + CS(=O)(=O)N1CCN(Cc2cc3nc(-c4cccc5[nH]ncc45)nc(N4CCOCC4)c3s2)CC1 [Pictilisib] (partner 1 µM)
In short: as §1

Cell Line	relative viability (Vorinostat + OSI-027; first compound 0.253 µM)	relative viability (Vorinostat + OSI-027; first compound 0.8 µM)	relative viability (Vorinostat + OSI-027; first compound 2.53 µM)	relative viability (Vorinostat + OSI-027; first compound 8 µM)	relative viability (Vorinostat + Luminespib; first compound 0.253 µM)	relative viability (Vorinostat + Luminespib; first compound 0.8 µM)	relative viability (Vorinostat + Luminespib; first compound 2.53 µM)	relative viability (Vorinostat + Luminespib; first compound 8 µM)	relative viability (Vorinostat + Phenformin; first compound 0.253 µM)	relative viability (Vorinostat + Phenformin; first compound 0.8 µM)	relative viability (Vorinostat + Phenformin; first compound 2.53 µM)	relative viability (Vorinostat + Phenformin; first compound 8 µM)	relative viability (Vorinostat + Olaparib; first compound 0.253 µM)	relative viability (Vorinostat + Olaparib; first compound 0.8 µM)	relative viability (Vorinostat + Olaparib; first compound 2.53 µM)	relative viability (Vorinostat + Olaparib; first compound 8 µM)	relative viability (Vorinostat + Pictilisib; first compound 0.253 µM)	relative viability (Vorinostat + Pictilisib; first compound 0.8 µM)	relative viability (Vorinostat + Pictilisib; first compound 2.53 µM)	relative viability (Vorinostat + Pictilisib; first compound 8 µM)
NCI-H23	0.595	0.338	0.329	0.118	0.197	0.25	0.191	0.164	0.844	0.881	0.674	0.101	0.317	0.239	0.0822	0.084	0.599	0.391	0.181	0.161
NCI-H2126	0.761	0.572	0.506	0.209	0.832	0.977	0.403	0.175	0.525	0.495	0.244	0.177	0.885	0.905	0.391	0.196	0.495	0.42	0.334	0.221
COR-L 105	0.839	0.601	0.319	0.182	0.968	0.892	0.646	0.219	0.609	0.54	0.199	0.234	0.727	0.821	0.589	0.266	0.438	0.261	0.262	0.201
NCI-H727	0.682	0.574	0.477	0.393	0.25	0.378	0.311	0.341	0.964	0.395	0.478	0.255	0.682	0.745	0.525	0.401	0.458	0.455	0.243	0.188

Source: the supplement of paper PMC10307832
